Here are results for nine compounds from ChEMBL document CHEMBL5126517, “Structure-Activity Relationship in the Leucettine Family of Kinase Inhibitors” (J Med Chem, 2022).

Usually IC50 stands for the concentration that inhibits the measured activity by half. Broadly, the EC50 is the concentration needed to bring the measured effect to its halfway point.

Data set [1] has as its target Dual specificity protein kinase CLK4 (Mus musculus, UniProt O35493). In words: Inhibition of GST-fused mouse recombinant CLK4 expressed in Escherichia coli using GRSRSRSRSRSR peptide as substrate incubated for 30 mins in presence of ATP by scintillation counting method.
For data set [2], the target named is Dual specificity protein kinase CLK1 (Mus musculus, UniProt P22518). Nature of the data set: Inhibition of GST-fused mouse recombinant CLK1 expressed in Escherichia coli using GRSRSRSRSRSR peptide as substrate incubated for 30 mins in presence of ATP by scintillation counting method.
Dual specificity protein kinase CLK1, sequence (P22518 whole entry, the tested form may be a part): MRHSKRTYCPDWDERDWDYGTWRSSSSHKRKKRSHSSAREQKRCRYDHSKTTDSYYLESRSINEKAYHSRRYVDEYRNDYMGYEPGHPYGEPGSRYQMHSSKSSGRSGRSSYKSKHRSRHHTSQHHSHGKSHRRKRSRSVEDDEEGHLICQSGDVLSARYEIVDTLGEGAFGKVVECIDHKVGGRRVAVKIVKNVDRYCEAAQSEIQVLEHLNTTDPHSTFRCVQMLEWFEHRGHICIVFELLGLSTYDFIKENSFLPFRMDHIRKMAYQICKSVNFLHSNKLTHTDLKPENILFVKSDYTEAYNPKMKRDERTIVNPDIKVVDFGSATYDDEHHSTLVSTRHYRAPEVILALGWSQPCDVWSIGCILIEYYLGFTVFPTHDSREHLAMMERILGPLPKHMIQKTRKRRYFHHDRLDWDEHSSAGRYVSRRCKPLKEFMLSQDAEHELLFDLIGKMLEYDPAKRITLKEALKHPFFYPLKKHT
Data set [3] addresses Glycogen synthase kinase-3 (Sus scrofa, UniProt B2LUN4+I6LNT8). Nature of the data set: Inhibition of porcine brain GSK-3alpha/beta using YRRAAVPPSPSLSRHSSPHQpSEDEEE as substrate incubated for 30 mins in presence of ATP by scintillation counting method. Format: tissue-based.
Data set [4] addresses Dual specificity protein kinase CLK3 (Mus musculus, UniProt O35492). In words: Inhibition of GST-fused mouse recombinant CLK3 expressed in Escherichia coli using GRSRSRSRSRSR peptide as substrate incubated for 30 mins in presence of ATP by scintillation counting method.
For data set [5], the target named is Cannabinoid receptor 1 (Homo sapiens, UniProt P21554). Nature of the data set: Antagonist activity at CP-55940-activated CB1 receptor (unknown origin) at 10 uM by beta-arrestin assay relative to control. Format: functional. More on the design: scale not given: the % may be the effect or the level left.
Cannabinoid receptor 1, sequence (P21554 whole entry): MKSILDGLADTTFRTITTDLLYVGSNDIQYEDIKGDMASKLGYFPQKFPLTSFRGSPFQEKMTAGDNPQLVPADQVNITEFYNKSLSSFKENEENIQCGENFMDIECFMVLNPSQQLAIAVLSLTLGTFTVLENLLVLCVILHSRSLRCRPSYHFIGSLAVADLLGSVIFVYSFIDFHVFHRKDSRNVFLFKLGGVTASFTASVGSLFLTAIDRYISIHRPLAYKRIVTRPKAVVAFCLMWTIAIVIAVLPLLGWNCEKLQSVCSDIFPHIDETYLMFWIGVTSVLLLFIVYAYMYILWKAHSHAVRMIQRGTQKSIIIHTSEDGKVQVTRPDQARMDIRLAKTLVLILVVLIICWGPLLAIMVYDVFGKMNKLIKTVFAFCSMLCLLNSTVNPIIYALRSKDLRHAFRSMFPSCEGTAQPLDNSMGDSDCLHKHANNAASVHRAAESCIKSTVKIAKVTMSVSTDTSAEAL
The target of data set [6] is Dual specificity tyrosine-phosphorylation-regulated kinase 1B (Homo sapiens, UniProt Q9Y463).
Dual specificity tyrosine-phosphorylation-regulated kinase 1B, sequence (Q9Y463 whole entry, the tested form may be a part): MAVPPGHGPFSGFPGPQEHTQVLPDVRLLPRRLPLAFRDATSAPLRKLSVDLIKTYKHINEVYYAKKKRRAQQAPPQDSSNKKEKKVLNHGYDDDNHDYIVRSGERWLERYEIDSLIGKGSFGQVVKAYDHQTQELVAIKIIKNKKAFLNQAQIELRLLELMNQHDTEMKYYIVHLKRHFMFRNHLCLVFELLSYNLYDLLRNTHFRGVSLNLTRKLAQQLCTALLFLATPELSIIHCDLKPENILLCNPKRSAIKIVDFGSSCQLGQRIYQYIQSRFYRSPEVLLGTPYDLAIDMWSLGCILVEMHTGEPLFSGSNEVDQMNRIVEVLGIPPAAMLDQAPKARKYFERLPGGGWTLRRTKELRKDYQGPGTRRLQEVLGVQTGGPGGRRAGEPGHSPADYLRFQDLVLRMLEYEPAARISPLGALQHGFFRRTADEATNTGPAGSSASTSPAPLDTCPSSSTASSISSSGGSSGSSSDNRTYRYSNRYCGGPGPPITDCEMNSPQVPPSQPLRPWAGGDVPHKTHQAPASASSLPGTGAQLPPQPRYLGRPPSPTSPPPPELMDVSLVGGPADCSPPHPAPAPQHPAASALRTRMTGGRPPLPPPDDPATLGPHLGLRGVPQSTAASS
The target of data set [7] is Dual specificity tyrosine-phosphorylation-regulated kinase 1A (Homo sapiens, UniProt Q13627). In words: Inhibition of GST-fused human recombinant DYRK1A expressed in Escherichia coli using GRSRSRSRSRSR peptide as substrate incubated for 30 mins in presence of ATP by scintillation counting method.
For data set [8], the target named is Serine/threonine-protein kinase pim-1 (Homo sapiens, UniProt P11309). In words: Inhibition of human recombinant Pim1 expressed in Escherichia coli using histone H1 as substrate incubated for 30 mins in presence of ATP by scintillation counting method.
Serine/threonine-protein kinase pim-1, sequence (P11309 whole entry): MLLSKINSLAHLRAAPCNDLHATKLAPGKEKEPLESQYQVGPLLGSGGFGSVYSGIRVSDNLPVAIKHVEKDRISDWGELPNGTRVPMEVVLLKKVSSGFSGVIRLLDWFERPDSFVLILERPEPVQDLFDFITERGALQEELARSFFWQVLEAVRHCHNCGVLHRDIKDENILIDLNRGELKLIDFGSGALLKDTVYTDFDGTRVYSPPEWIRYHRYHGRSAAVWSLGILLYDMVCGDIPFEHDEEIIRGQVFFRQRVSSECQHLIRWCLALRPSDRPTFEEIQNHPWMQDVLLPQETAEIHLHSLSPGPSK
Data set [9] has as its target T1, Dual specificity tyrosine-phosphorylation-regulated kinase 2 (Homo sapiens, UniProt Q92630).
T1 sequence (Q92630 whole entry): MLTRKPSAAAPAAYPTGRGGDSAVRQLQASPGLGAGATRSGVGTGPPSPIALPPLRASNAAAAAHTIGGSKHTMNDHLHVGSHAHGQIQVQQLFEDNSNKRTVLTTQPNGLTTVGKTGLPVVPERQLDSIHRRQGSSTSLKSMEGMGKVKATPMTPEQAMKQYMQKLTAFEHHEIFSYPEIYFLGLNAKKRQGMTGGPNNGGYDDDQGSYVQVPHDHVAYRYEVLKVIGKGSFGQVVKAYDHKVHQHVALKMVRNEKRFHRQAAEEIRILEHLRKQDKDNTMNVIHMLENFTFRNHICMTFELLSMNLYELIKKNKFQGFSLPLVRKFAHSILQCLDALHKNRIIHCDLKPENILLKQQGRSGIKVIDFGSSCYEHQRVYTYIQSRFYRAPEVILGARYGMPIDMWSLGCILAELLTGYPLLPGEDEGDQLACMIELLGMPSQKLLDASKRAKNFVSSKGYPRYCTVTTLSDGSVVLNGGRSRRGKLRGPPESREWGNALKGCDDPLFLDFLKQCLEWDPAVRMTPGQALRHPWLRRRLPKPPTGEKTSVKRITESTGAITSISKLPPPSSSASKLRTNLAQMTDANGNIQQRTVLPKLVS
Nature of the data set: Inhibition of GST-fused human recombinant DYRK2 expressed in Escherichia coli using GRSRSRSRSRSR peptide as substrate incubated for 30 mins in presence of ATP by scintillation counting method.

In data set [10] the target is T2, Dual specificity tyrosine-phosphorylation-regulated kinase 3 (Homo sapiens, UniProt O43781).
T2 sequence (O43781 whole entry): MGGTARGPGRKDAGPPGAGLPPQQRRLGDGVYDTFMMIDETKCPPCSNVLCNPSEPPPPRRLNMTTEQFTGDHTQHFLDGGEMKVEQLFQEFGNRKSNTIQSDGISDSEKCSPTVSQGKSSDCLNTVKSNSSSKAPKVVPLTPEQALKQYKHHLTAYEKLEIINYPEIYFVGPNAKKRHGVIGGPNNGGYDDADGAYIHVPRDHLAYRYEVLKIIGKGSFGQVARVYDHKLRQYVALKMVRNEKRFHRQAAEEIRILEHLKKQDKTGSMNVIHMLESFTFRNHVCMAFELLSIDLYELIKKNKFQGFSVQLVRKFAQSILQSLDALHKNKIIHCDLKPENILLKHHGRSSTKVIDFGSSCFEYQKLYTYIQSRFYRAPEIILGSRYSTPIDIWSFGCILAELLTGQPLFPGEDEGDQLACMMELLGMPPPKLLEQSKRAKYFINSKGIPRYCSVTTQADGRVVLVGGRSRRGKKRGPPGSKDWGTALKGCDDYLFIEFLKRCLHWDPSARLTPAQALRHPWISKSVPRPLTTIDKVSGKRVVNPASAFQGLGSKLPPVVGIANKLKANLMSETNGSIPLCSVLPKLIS
In words: Inhibition of GST-fused human recombinant DYRK3 expressed in Escherichia coli using GRSRSRSRSRSR peptide as substrate incubated for 30 mins in presence of ATP by scintillation counting method.

The test system of data set [11] is U2OS. In words: Induction of PI3K/mTor-dependent autophagy in human U2OS cells assessed as number of LC3 foci per cell at 10 uM measured after 4 hrs. The data set is classed as cell-based. Conditions: filed as activator.
The target of data set [12] is Casein kinase 2 (Homo sapiens, UniProt P67870+P68400+P19784+Q8NEV1). Nature of the data set: Inhibition of human recombinant CK2 using RRRDDDSDDD peptide as substrate incubated for 30 mins in presence of ATP by scintillation counting method. Format: protein assay.
Data set [13] concerns the target Dual specificity protein kinase CLK2 (Mus musculus, UniProt O35491). In words: Inhibition of mouse recombinant GST-fused CLK2 expressed in Escherichia coli using GRSRSRSRSRSR peptide as substrate incubated for 30 mins in presence of ATP by scintillation counting method.
Data set [14] deals with HT-22. In words: Neuroprotective activity against glutamate-induced cell death in mouse HT-22 cells treated for 24 hrs by MTS assay. Format: functional, cell-based. Conditions: HT-22, 24 h. In general terms: Tetrazolium dyes change colour on reduction, which living cells bring about.
A short description of data set [15]: Neurotoxicity against mouse HT-22 cells assessed as cell survival treated for 24 hrs by MTS assay. Format: toxicity, cell-based.
Data set [16] has as its system HT-22. In words: Modulation of CLK1 pre-mRNA splicing in mouse HT-22 cells assessed as inclusion of CLK1 exon 4 by measuring change in threshold cycle at 10 uM measured after 4 hrs by real time PCR analysis. The data set is classed as cell-based. Conditions: filed as modulator.

Dual specificity protein kinase CLK2, sequence (O35491 whole entry, the tested form may be a part): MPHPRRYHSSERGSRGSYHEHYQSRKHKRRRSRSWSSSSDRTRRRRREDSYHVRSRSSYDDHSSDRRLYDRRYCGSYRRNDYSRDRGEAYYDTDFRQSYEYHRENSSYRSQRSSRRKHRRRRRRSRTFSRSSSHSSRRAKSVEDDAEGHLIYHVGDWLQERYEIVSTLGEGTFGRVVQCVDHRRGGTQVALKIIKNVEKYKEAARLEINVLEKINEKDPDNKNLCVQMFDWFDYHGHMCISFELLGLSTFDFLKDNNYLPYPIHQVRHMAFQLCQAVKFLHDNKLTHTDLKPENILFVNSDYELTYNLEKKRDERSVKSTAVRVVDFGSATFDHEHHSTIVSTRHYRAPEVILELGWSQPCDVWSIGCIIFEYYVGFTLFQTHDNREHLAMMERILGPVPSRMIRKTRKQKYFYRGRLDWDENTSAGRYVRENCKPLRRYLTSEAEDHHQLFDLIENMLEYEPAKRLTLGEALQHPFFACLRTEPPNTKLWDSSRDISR
Dual specificity protein kinase CLK3, sequence (O35492 whole entry, the tested form may be a part): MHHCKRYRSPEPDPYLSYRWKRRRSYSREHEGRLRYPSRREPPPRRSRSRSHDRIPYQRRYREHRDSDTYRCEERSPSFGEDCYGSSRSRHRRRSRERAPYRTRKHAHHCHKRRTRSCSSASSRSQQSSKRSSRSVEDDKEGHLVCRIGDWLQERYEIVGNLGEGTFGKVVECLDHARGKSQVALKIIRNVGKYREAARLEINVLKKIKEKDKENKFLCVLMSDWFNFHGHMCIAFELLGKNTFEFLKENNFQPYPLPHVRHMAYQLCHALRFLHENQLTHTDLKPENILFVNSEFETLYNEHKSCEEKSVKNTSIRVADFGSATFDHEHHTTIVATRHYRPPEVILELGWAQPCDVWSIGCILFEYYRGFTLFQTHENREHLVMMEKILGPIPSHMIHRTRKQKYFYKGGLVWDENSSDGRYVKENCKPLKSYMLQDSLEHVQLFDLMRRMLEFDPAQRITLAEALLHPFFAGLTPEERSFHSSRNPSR
Dual specificity protein kinase CLK4, sequence (O35493 whole entry, the tested form may be a part): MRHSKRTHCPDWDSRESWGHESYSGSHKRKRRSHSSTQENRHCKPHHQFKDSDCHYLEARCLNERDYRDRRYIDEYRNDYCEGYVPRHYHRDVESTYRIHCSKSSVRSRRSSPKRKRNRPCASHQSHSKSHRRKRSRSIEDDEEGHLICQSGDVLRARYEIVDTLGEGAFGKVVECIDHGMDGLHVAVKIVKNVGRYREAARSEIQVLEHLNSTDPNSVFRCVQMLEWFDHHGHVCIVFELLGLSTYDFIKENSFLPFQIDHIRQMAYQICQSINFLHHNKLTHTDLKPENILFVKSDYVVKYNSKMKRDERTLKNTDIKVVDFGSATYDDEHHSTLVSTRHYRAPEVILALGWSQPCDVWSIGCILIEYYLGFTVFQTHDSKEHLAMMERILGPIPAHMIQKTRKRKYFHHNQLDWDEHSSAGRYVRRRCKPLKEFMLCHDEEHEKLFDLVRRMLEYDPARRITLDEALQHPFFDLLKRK

Consider `CN1CCN(c2ccc(NC3=N/C(=C\C4=COc5ccccc5O4)C(=O)N3)cc2)CC1`, for which the IC50 in data set [1] stood at 19 nM; in [2] it was 17 nM; in [3], 120 nM; in data set [4], 1100 nM; in data set [6], 20 nM; in [7], 7 nM. Besides, the IC50 in [8] amounted to 510 nM; in data set [9] it was 8 nM; in [10] it was 14 nM; in data set [12], 450 nM; in [13], 67 nM. The Activity in data set [5] is -1.4%; in data set [11], 22. Further, in data set [14], the EC50 was 12000 nM. Besides, the IC50 at 24 h in data set [15] is more than 20000 nM.
For `CN(C1=N/C(=C\c2ccc3c(c2)OCO3)C(=O)N1)c1ccccc1`, the IC50 in [1] was 130 nM; in data set [2], 310 nM; in [3] it was 6200 nM; in data set [4], 2600 nM; in data set [6] it was 680 nM; in data set [7] it was 380 nM. In addition, the IC50 in [8] was 2000 nM; in data set [9] it was 320 nM; in [10], 1800 nM; in data set [12] it was 2100 nM; in data set [13] it was 1200 nM. The Activity in data set [5] was -9.1%; in [11] it was 4.7. The EC50 in data set [14] is more than 20000 nM. Moreover, the EC50 at 24 h in data set [15] was more than 20000 nM.
`CCCNC1=N/C(=C\c2ccc3c(c2)OCO3)C(=O)N1c1ccccc1`: the IC50 is 1200 nM in data set [1]; 2000 nM in data set [2]; more than 10000 nM in data set [3]; 9500 nM in [4]; more than 10000 nM in data set [6]; more than 10000 nM in data set [7]. Moreover, the IC50 came out at 7200 nM in data set [9], 7000 nM in data set [10] and 2500 nM in data set [13]. Further, the Activity in [5] is -17.9%; in data set [11] it was 4.7. Besides, the deltaCT in data set [16] was -0.05. Further, the concentration giving a half-maximal response (EC50) at 24 h in [15] is more than 20000 nM.
With `O=C1NC(Nc2ccccc2)=N/C1=C\c1ccc2c(c1)CCCO2`, the IC50 in [1] was 140 nM; in data set [2] it was 120 nM; in [3], more than 10000 nM; in data set [4], not below 10000 nM; in data set [6] it was 360 nM; in [7], 120 nM. Further, the IC50 was 1200 nM in data set [8]; 120 nM in data set [9]; 420 nM in [10]; 2200 nM in data set [12]; 1800 nM in [13]. The Activity in [5] (filed as antagonist) came out at 94%; in [11], 4.8. Besides, it took 3500 nM to reach a half-maximal effect in data set [14] (EC50). In addition, the half-inhibitory concentration (IC50) at 24 h in [15] is more than 20000 nM.
Take `C/C(=C1/N=C(Nc2ccccc2)NC1=O)c1ccc2c(c1)OCO2`: the IC50 in data set [1] was 5900 nM; in [2], not below 10000 nM; in data set [4], more than 10000 nM; in [6], more than 10000 nM; in [7], 8500 nM; in [9], 1600 nM. Moreover, in data set [13], the IC50 was more than 10000 nM. For the same compound, the Activity is -42.1% in [5] and 5.8 in data set [11]. In addition, in [16], the deltaCT amounted to 0.38. In data set [15], the IC50 at 24 h was more than 20000 nM.
Regarding `Cc1ccc(NC2=N/C(=C\c3ccc4c(c3)OCO4)C(=O)N2)cc1C`, the IC50 in data set [1] is 160 nM; in [2], 280 nM; in data set [3], more than 10000 nM; in data set [4], more than 10000 nM; in data set [6], 520 nM; in data set [7] it was 130 nM. Moreover, the IC50 in [8] was more than 10000 nM; in [9], 55 nM; in [10] it was 1700 nM; in data set [12], more than 10000 nM; in data set [13], 2200 nM. The Activity stood at 51.7% in [5] (filed as antagonist) and 6.6 in data set [11]. Also, the midpoint of the response in [14], the EC50, lay at 2700 nM. Moreover, in data set [15], the EC50 at 24 h is more than 20000 nM.
As to `NC1=N/C(=C\c2ccc3c(c2)OCO3)C(=O)N1`, the IC50 worked out at 37 nM in [1]; 41 nM in [2]; 2100 nM in [3]; 950 nM in data set [4]; 190 nM in [6]; 35 nM in data set [7]. In addition, the IC50 in [8] worked out at 320 nM; in data set [9], 32 nM; in [10], 240 nM; in [12], 930 nM; in [13] it was 180 nM. Besides, the Activity in data set [5] was -2.2%; in data set [11], 5. Further, the deltaCT in data set [16] was determined as 3.02. In addition, the EC50 at 24 h in data set [15] was more than 20000 nM.
Take `O=C1NC(Nc2ccccn2)=N/C1=C\c1ccc2c(c1)OCO2`: the IC50 amounted to 53 nM in data set [1]; 72 nM in data set [2]; 1700 nM in data set [3]; 510 nM in data set [4]; 200 nM in data set [6]; 44 nM in data set [7]. For the same compound, the 50% inhibitory concentration (IC50) came to 480 nM in data set [8]; 33 nM in [9]; 310 nM in [10]; 130 nM in data set [12]; 220 nM in [13]. Moreover, the values for the Activity in [5] and in [11] were -18.3% and 5.5, respectively. Moreover, in data set [14], the EC50 is more than 20000 nM. The EC50 at 24 h in [15] was more than 20000 nM.
On to `CCCNC1=N/C(=C\c2ccc3c(c2)OCO3)C(=O)N1`, for which the IC50 in data set [1] is 61 nM; in data set [2], 70 nM; in data set [3] it was 4100 nM; in [4] it was 3000 nM; in [6], 310 nM; in data set [7], 120 nM. In addition, the IC50 in [8] is 1200 nM; in data set [9], 100 nM; in data set [10], 650 nM; in data set [12] it was 1400 nM; in [13], 550 nM. In addition, the Activity in [5] is -14.8%; in data set [11], 5.1. Also, in data set [16], the deltaCT was found to be 5.11. For the same compound, the EC50 at 24 h in data set [15] was more than 20000 nM.
